In PubChem BioAssay (NCI):
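Dose response: 5 concentrations. Exposure: 48 h. Format: 96-well plates. Endpoint: linear interpolation; highest concentration if not reached. At the TGI there is no net growth.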

How the values were obtained:
Test in all cases: DTP human tumour cell line panel, 48 h
786-0 renal = tested on: 786-0 renal
A498 renal = tested on: A498 renal
A549 NSCLC = tested on: A549 NSCLC
ACHN renal = tested on: ACHN renal
BT-549 breast = tested on: BT-549 breast
CCRF-CEM leukemia = tested on: CCRF-CEM leukemia
COLO 205 colon = tested on: COLO 205 colon
DU-145 prostate = tested on: DU-145 prostate
EKVX NSCLC = tested on: EKVX NSCLC
HCC-2998 colon = tested on: HCC-2998 colon
HCT-116 colon = tested on: HCT-116 colon
HCT-15 colon = tested on: HCT-15 colon
HL-60(TB) leukemia = tested on: HL-60(TB) leukemia
HOP-62 NSCLC = tested on: HOP-62 NSCLC
HOP-92 NSCLC = tested on: HOP-92 NSCLC
HT29 colon = tested on: HT29 colon
IGROV1 ovarian = tested on: IGROV1 ovarian
K-562 leukemia = tested on: K-562 leukemia
KM12 colon = tested on: KM12 colon
LOX IMVI melanoma = tested on: LOX IMVI melanoma
M14 melanoma = tested on: M14 melanoma
MALME-3M melanoma = tested on: MALME-3M melanoma
MCF7 breast = tested on: MCF7 breast
MDA-MB-231 breast = tested on: MDA-MB-231 breast
MDA-MB-435 = tested on: MDA-MB-435
MDA-N = tested on: MDA-N
MOLT-4 leukemia = tested on: MOLT-4 leukemia
NCI-H226 lung = tested on: NCI-H226 lung
NCI-H23 lung = tested on: NCI-H23 lung
NCI-H460 lung = tested on: NCI-H460 lung
NCI/ADR-RES ovarian = tested on: NCI/ADR-RES ovarian
OVCAR-3 ovarian = tested on: OVCAR-3 ovarian
OVCAR-4 ovarian = tested on: OVCAR-4 ovarian
OVCAR-5 ovarian = tested on: OVCAR-5 ovarian
PC-3 prostate = tested on: PC-3 prostate
RPMI-8226 leukemia = tested on: RPMI-8226 leukemia
RXF 393 renal = tested on: RXF 393 renal
SF-268 CNS = tested on: SF-268 CNS
SF-539 CNS = tested on: SF-539 CNS
SK-MEL-2 melanoma = tested on: SK-MEL-2 melanoma
SK-MEL-28 melanoma = tested on: SK-MEL-28 melanoma
SK-MEL-5 melanoma = tested on: SK-MEL-5 melanoma
SK-OV-3 ovarian = tested on: SK-OV-3 ovarian
SN12C renal = tested on: SN12C renal
SNB-19 CNS = tested on: SNB-19 CNS
SR leukemia = tested on: SR leukemia
SW-620 colon = tested on: SW-620 colon
T-47D breast = tested on: T-47D breast
TK-10 renal = tested on: TK-10 renal
U251 CNS = tested on: U251 CNS
UACC-257 melanoma = tested on: UACC-257 melanoma
UACC-62 melanoma = tested on: UACC-62 melanoma
UO-31 renal = tested on: UO-31 renal
CAKI-1 renal = tested on: CAKI-1 renal
NCI-H522 lung = tested on: NCI-H522 lung
OVCAR-8 ovarian = tested on: OVCAR-8 ovarian
SF-295 CNS = tested on: SF-295 CNS
SNB-75 CNS = tested on: SNB-75 CNS

Nc1nc(-[n+]2ccc(-c3ccncc3)cc2)nc(Cl)c1Cl
TGI (786-0 renal): 57.9 µM | TGI (A498 renal): > 100 µM | TGI (A549 NSCLC): > 100 µM | TGI (ACHN renal): > 100 µM | TGI (BT-549 breast): > 100 µM | TGI (CCRF-CEM leukemia): 31.8 µM | TGI (COLO 205 colon): > 100 µM | TGI (DU-145 prostate): > 100 µM | TGI (EKVX NSCLC): > 100 µM | TGI (HCC-2998 colon): > 100 µM | TGI (HCT-116 colon): > 100 µM | TGI (HCT-15 colon): > 100 µM | TGI (HL-60(TB) leukemia): 38.9 µM | TGI (HOP-62 NSCLC): > 100 µM | TGI (HOP-92 NSCLC): 48 µM | TGI (HT29 colon): > 100 µM | TGI (IGROV1 ovarian): 33.3 µM | TGI (K-562 leukemia): 91.7 µM | TGI (KM12 colon): > 100 µM | TGI (LOX IMVI melanoma): 33.2 µM | TGI (M14 melanoma): > 100 µM | TGI (MALME-3M melanoma): > 100 µM | TGI (MCF7 breast): 21.8 µM | TGI (MDA-MB-231 breast): 95.9 µM | TGI (MDA-MB-435): > 100 µM | TGI (MDA-N): > 100 µM | TGI (MOLT-4 leukemia): 37.2 µM | TGI (NCI-H226 lung): > 100 µM | TGI (NCI-H23 lung): 54.9 µM | TGI (NCI-H460 lung): > 100 µM | TGI (NCI/ADR-RES ovarian): > 100 µM | TGI (OVCAR-3 ovarian): 33.5 µM | TGI (OVCAR-4 ovarian): > 100 µM | TGI (OVCAR-5 ovarian): > 100 µM | TGI (PC-3 prostate): > 100 µM | TGI (RPMI-8226 leukemia): > 100 µM | TGI (RXF 393 renal): 32.8 µM | TGI (SF-268 CNS): 34.6 µM | TGI (SF-539 CNS): 68.1 µM | TGI (SK-MEL-2 melanoma): > 100 µM | TGI (SK-MEL-28 melanoma): > 100 µM | TGI (SK-MEL-5 melanoma): > 100 µM | TGI (SK-OV-3 ovarian): > 100 µM | TGI (SN12C renal): 42.5 µM | TGI (SNB-19 CNS): > 100 µM | TGI (SR leukemia): 41 µM | TGI (SW-620 colon): > 100 µM | TGI (T-47D breast): 45.9 µM | TGI (TK-10 renal): 59 µM | TGI (U251 CNS): > 100 µM | TGI (UACC-257 melanoma): 40.8 µM | TGI (UACC-62 melanoma): > 100 µM | TGI (UO-31 renal): > 100 µM

c1ccc(CNc2nncc3[nH]cnc23)cc1
TGI (786-0 renal): > 100 µM | TGI (A498 renal): > 100 µM | TGI (A549 NSCLC): > 100 µM | TGI (ACHN renal): > 100 µM | TGI (BT-549 breast): > 100 µM | TGI (CAKI-1 renal): > 100 µM | TGI (CCRF-CEM leukemia): > 100 µM | TGI (COLO 205 colon): > 100 µM | TGI (EKVX NSCLC): > 100 µM | TGI (HCC-2998 colon): > 100 µM | TGI (HCT-116 colon): > 100 µM | TGI (HCT-15 colon): > 100 µM | TGI (HL-60(TB) leukemia): > 100 µM | TGI (HOP-62 NSCLC): > 100 µM | TGI (HOP-92 NSCLC): > 100 µM | TGI (HT29 colon): > 100 µM | TGI (IGROV1 ovarian): > 100 µM | TGI (K-562 leukemia): > 100 µM | TGI (KM12 colon): > 100 µM | TGI (LOX IMVI melanoma): > 100 µM | TGI (M14 melanoma): > 100 µM | TGI (MALME-3M melanoma): > 100 µM | TGI (MCF7 breast): > 100 µM | TGI (MDA-MB-231 breast): > 100 µM | TGI (MDA-MB-435): > 100 µM | TGI (MDA-N): > 100 µM | TGI (MOLT-4 leukemia): > 100 µM | TGI (NCI-H226 lung): > 100 µM | TGI (NCI-H23 lung): > 100 µM | TGI (NCI-H522 lung): > 100 µM | TGI (NCI/ADR-RES ovarian): > 100 µM | TGI (OVCAR-3 ovarian): > 100 µM | TGI (OVCAR-4 ovarian): > 100 µM | TGI (OVCAR-5 ovarian): > 100 µM | TGI (OVCAR-8 ovarian): > 100 µM | TGI (PC-3 prostate): > 100 µM | TGI (RPMI-8226 leukemia): > 100 µM | TGI (SF-295 CNS): > 100 µM | TGI (SF-539 CNS): > 100 µM | TGI (SK-MEL-2 melanoma): > 100 µM | TGI (SK-MEL-28 melanoma): > 100 µM | TGI (SK-MEL-5 melanoma): > 100 µM | TGI (SK-OV-3 ovarian): > 100 µM | TGI (SN12C renal): > 100 µM | TGI (SNB-75 CNS): > 100 µM | TGI (SR leukemia): > 100 µM | TGI (SW-620 colon): > 100 µM | TGI (T-47D breast): > 100 µM | TGI (TK-10 renal): > 100 µM | TGI (U251 CNS): > 100 µM | TGI (UACC-257 melanoma): > 100 µM | TGI (UACC-62 melanoma): > 100 µM | TGI (UO-31 renal): > 100 µM
